This passage reports IC50 and AC50 results from ChEMBL document CHEMBL1201862, “PubChem BioAssay data set” (2004).

For one experiment, the target named is T1, Aminopeptidase N (Plasmodium falciparum FcB1/Columbia, UniProt O96935).
T1 sequence (O96935 whole entry): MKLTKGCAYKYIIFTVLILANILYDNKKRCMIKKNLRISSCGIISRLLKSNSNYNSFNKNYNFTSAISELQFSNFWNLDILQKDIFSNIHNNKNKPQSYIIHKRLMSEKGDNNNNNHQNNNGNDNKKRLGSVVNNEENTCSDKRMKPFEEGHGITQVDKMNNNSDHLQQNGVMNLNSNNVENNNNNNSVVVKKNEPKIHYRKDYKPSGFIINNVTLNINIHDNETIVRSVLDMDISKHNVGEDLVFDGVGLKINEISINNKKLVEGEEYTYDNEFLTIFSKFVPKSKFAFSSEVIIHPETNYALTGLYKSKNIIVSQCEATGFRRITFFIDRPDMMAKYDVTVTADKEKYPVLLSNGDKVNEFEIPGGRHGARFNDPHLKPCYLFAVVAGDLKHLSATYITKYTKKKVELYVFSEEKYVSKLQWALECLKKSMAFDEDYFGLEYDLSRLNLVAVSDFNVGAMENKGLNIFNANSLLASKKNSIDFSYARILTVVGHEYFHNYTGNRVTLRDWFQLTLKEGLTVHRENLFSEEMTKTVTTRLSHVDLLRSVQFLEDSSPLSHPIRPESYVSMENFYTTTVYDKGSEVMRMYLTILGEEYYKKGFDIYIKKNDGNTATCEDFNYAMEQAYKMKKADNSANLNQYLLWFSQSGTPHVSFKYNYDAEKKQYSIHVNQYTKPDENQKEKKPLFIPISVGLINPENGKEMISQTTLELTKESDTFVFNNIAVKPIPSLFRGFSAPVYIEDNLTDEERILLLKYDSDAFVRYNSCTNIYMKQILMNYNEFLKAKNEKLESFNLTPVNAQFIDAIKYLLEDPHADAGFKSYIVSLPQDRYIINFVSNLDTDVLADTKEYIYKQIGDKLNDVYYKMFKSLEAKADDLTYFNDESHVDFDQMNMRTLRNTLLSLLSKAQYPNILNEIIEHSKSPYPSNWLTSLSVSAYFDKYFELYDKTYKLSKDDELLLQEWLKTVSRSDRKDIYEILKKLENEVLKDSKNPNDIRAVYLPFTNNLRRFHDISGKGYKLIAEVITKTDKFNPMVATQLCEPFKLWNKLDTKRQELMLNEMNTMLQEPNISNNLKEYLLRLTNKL
As to the kind of experiment: P. falciparum M1AAP inhibitors, biochemical, fluorogenic H-Leu-NHMec substrate, 1536-well (AID 1445). Also on record: species or system Plasmodium falciparum 3D7, 3D7.

In a further experiment the target is Phospholipase A2 (Homo sapiens, UniProt P04054). The class given is functional.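 Note: confirmatory dose-response counterscreen on phospholipase A2, testing hits that came from an ultra-high-throughput screen for ATG4B inhibitors.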
Phospholipase A2, sequence (P04054 whole entry): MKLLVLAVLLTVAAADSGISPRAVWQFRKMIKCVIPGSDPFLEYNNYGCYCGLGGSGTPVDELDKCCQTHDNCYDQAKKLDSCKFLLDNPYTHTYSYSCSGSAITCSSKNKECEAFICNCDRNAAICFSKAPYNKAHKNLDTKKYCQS
For another experiment, the target named is Cysteine protease ATG4B (Homo sapiens, UniProt Q9Y4P1). The class given is functional.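 Note: Fluorescence-based dose-response confirmation assay measuring inhibition of ATG4B activity.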
Cysteine protease ATG4B, sequence (Q9Y4P1 whole entry): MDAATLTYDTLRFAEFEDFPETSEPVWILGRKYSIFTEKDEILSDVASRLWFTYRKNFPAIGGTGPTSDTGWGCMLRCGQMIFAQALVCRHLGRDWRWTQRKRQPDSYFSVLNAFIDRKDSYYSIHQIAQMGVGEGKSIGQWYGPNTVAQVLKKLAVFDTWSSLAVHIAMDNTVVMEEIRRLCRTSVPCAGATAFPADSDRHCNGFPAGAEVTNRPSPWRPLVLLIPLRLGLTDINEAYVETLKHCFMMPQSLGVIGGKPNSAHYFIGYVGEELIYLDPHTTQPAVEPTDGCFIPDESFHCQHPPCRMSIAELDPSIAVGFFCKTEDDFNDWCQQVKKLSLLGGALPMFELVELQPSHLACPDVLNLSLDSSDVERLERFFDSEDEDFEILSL
Experiment [1] concerns the target T2, Sentrin-specific protease 6 (Homo sapiens, UniProt Q9GZR1).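 Note: Luminescence-based dose-response confirmatory assay of SENP6 inhibition, following up an ultra-high-throughput screen.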
T2 sequence (Q9GZR1 whole entry): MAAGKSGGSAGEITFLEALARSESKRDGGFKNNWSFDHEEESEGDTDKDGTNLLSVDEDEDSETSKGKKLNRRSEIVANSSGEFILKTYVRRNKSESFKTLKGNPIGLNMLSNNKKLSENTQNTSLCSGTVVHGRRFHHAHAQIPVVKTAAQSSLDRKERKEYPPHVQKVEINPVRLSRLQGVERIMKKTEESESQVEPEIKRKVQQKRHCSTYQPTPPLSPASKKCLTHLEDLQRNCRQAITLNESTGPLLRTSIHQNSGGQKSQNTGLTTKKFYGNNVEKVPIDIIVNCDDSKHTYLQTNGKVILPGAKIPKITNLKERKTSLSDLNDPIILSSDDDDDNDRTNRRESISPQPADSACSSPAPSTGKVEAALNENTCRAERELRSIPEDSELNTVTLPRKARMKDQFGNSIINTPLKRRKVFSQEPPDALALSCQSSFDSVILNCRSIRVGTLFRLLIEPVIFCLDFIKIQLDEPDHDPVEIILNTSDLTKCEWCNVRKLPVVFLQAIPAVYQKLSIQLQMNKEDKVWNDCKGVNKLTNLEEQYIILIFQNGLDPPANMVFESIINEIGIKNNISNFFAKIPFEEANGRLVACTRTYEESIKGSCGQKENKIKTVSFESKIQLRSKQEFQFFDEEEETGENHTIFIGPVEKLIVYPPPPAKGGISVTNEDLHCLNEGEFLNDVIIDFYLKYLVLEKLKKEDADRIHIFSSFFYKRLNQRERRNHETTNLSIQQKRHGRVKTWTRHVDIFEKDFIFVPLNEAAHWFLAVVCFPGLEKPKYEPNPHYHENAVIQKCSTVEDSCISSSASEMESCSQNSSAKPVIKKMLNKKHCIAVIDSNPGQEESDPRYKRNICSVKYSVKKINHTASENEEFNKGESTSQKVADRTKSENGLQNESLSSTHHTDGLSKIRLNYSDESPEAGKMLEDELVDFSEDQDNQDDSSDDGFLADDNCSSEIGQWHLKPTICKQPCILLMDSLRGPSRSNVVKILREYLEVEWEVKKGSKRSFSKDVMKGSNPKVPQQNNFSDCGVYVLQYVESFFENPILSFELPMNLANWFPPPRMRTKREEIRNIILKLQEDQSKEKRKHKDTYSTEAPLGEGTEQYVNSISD
The class given is functional.

Experiment [2] deals with T3, Sentrin-specific protease 7 (Homo sapiens, UniProt Q9BQF6).
T3 sequence (Q9BQF6 whole entry): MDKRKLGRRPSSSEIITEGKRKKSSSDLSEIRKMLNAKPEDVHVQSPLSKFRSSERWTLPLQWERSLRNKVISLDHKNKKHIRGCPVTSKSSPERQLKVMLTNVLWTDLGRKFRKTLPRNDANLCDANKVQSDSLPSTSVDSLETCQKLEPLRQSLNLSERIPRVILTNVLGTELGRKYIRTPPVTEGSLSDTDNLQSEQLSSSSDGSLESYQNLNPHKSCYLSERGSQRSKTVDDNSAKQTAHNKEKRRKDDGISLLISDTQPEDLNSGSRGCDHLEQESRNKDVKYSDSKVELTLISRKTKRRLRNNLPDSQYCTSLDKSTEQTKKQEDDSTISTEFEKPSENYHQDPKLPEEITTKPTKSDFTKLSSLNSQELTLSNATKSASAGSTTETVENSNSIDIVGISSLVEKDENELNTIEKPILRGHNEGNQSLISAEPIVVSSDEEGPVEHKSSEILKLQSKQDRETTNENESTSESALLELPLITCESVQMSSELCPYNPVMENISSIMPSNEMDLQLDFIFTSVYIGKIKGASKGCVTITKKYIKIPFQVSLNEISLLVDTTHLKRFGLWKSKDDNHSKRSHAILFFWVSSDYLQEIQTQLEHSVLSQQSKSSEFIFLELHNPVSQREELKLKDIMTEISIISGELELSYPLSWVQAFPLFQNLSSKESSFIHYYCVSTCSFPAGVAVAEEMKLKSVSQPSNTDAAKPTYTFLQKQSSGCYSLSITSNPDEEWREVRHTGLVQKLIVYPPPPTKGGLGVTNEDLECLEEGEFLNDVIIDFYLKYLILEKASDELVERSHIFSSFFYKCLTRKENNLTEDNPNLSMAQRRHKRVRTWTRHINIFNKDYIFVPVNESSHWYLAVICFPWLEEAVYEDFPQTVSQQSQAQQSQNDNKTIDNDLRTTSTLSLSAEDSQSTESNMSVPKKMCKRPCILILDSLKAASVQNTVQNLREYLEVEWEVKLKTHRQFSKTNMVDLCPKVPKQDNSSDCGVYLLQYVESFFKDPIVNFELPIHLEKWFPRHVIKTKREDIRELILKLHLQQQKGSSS
The class given is functional.

The next experiment concerns the target T4, Caspase-3 (Homo sapiens, UniProt P42574).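 Note: Dose-response selectivity test against caspase-3 for candidate inhibitors of sentrin-specific proteases (SENPs).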
T4 sequence (P42574 whole entry): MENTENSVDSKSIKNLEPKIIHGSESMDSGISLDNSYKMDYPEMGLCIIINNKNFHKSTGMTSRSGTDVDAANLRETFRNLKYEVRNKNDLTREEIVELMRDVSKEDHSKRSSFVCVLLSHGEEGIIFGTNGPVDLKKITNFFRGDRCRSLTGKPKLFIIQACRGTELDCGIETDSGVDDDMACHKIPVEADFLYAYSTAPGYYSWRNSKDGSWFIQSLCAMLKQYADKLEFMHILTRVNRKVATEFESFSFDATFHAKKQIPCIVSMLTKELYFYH
The class given is functional.

For experiment [3], the target named is T5, Sentrin-specific protease 8 (Homo sapiens, UniProt Q96LD8).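 Note: luminescence read-out of SENP8 inhibition, dose-response confirmation following an ultra-high-throughput screen.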
T5 sequence (Q96LD8 whole entry): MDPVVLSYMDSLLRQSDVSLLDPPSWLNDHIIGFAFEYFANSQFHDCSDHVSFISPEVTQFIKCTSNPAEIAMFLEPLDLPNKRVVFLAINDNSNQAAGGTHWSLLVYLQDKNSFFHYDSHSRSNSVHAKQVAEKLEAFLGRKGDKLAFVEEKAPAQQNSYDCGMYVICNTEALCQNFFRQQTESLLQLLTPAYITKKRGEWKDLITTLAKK
The class given is functional.

Experiment [4] addresses FAD-linked sulfhydryl oxidase ALR (Homo sapiens, UniProt P55789). As to the kind of experiment: inhibitors of human ALR sulfhydryl oxidase, dose response, biochemical, H2O2 detection, luminescence, cherry-pick (AID 493248).
The target in the next experiment is T6, Hexokinase-1 (Homo sapiens, UniProt P19367).
T6 sequence (P19367 whole entry): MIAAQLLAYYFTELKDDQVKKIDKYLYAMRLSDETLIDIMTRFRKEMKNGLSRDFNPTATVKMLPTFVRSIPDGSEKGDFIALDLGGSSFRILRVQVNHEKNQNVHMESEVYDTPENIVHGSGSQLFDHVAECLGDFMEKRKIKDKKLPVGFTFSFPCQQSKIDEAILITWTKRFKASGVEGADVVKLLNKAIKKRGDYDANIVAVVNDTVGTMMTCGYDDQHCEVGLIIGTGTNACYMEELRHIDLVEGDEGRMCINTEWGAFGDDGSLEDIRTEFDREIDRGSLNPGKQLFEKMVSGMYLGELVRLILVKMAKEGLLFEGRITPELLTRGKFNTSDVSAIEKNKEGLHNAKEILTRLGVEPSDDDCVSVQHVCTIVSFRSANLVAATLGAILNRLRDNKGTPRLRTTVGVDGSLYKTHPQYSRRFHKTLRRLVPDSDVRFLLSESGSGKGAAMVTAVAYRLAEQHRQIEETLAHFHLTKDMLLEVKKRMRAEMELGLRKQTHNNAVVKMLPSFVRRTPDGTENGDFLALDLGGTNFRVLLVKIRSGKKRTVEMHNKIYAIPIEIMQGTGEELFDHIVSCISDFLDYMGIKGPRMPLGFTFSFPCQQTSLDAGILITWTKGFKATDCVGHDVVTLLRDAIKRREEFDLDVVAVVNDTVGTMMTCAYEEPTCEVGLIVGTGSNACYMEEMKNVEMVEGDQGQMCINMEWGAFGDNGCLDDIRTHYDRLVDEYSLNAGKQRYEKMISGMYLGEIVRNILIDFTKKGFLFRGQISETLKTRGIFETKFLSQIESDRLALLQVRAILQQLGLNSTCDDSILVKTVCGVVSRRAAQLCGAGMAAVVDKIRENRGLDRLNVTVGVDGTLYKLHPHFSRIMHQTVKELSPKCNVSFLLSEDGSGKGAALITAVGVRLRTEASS
As to the kind of experiment: SAR analysis of small molecule inhibitors of hexokinase domain containing I (HKDC1) in the hexokinase 1 selectivity assay. [Related pubchem assays (depositor defined):AID493160, AID493190]. The class given is functional.

The target of a further experiment is T7, Hexokinase HKDC1 (Homo sapiens, UniProt Q2TB90).
T7 sequence (Q2TB90 whole entry): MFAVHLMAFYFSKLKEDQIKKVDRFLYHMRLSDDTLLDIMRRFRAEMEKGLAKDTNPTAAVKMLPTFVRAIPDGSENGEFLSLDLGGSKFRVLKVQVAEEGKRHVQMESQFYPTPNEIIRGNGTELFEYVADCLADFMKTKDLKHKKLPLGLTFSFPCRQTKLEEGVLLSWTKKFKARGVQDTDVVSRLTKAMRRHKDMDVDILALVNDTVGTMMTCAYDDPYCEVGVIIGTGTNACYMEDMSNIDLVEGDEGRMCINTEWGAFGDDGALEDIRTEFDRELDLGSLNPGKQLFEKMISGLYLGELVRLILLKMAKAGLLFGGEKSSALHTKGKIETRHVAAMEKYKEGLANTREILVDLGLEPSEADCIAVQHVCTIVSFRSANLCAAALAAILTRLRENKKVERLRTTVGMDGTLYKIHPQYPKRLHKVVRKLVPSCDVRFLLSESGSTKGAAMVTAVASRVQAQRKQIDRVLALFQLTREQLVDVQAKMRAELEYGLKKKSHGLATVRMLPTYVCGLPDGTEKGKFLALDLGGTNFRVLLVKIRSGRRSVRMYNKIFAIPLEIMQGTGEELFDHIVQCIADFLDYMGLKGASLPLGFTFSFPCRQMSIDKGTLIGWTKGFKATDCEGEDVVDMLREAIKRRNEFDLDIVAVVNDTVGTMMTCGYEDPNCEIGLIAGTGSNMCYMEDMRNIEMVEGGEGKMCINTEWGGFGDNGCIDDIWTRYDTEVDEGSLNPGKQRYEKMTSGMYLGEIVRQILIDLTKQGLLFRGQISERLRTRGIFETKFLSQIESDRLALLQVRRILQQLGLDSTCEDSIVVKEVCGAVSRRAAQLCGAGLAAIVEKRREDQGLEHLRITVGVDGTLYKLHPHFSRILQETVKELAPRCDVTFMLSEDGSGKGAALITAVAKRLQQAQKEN
The experiment in a line: SAR analysis of small molecule inhibitors of hexokinase domain containing I (HKDC1). [Related pubchem assays (depositor defined):AID493160, AID493190]. The class given is functional.

The source made the active and inactive calls.

FAD-linked sulfhydryl oxidase ALR, sequence (P55789 whole entry): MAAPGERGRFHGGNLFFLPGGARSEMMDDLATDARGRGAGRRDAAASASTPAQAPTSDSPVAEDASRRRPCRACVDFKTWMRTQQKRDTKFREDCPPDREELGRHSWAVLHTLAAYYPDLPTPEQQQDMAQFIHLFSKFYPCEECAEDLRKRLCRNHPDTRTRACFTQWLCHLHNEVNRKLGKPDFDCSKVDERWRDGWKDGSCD

The IC50 is the point on the concentration scale where inhibition reaches its midpoint. As to `COc1cc(/C=C/C(=O)O)cc(S(=O)(=O)Nc2cc(Cl)c(Cl)cc2Cl)c1OC`, the results for the concentration for half-maximal inhibition (IC50) on Aminopeptidase N, on Phospholipase A2 and on Cysteine protease ATG4B were 94.2 µM (active), 34.1 µM (inactive) and 6.7 µM (active), respectively.
As a reminder, the AC50 is the midpoint of the concentration-response curve, whichever way the signal moves. As to `C/C(=N/O)c1ccc2ccc3ccccc3c2c1`, the IC50 in experiment [1] was 16.7 µM (active); in experiment [2], 9.17 µM (active); on Caspase-3 it was 38 µM (active); in experiment [3] it was 21.6 µM (active). The AC50 in [4] was 5.54 µM (active).
Consider `O=c1c2ccccc2nc(/C=C/c2ccc(Br)cc2)n1Cc1ccccc1`, for which the IC50 at Hexokinase-1 and at Hexokinase HKDC1 was > 80 µM (inactive) throughout.
On to `Cc1ccc(C(=O)Nc2nnc(SCc3ccc(C#N)cc3)s2)cc1`, for which the IC50 on Hexokinase-1 and at Hexokinase HKDC1 was > 80 µM (inactive) in each case.
